Assay results taken from patent publication US9717714B2, “Spirocyclic CETP inhibitors” (Merck Sharp & Dohme Corp., priority 2012, dated 2017).

Key:
CETP = CETP (Homo sapiens (Human), UniProt P11597); assay: Scintillation Proximity Assay (SPA) for CETP activity; assay type: biochemical; settings: 15 nM CETP
Protocol: Protocol: Scintillation Proximity Assay (SPA) for CETP Activity
First, low density lipoprotein (LDL) (Meridian) was biotinylated by incubating LDL with biotin for 1 hour on ice, after which it was dialyzed to remove free biotin. Then compounds at varying concentrations were incubated with 15 nM CETP (reagent production group, In Vitro Pharmacology, MRL Rahway) and 50 ug/ml of the biotinylated LDL in 50 mM HEPES, 150 mM NaCl, pH 7.4, for 1 hour at 37° C. The reaction was started by adding ^3H-cholesterol ester high density lipoprotein (HDL) (American Radiochemicals Corp) at a concentration of ˜0.6 nM. The reaction proceeded for 2 hours at 37° C., after which time it was quenched by the addition of 12% acetic acid. PVT streptavadin-coated scintillation proximity beads, which had been brought to room temperature, were then added at a concentration of 4 mg/ml. The assay was then mixed and counted after one half hour in a Microbeta plate reader.

[1] = patients on baseline statin therapy, compared with just a statin; cited from earlier work
[2] = molecular target: endogenous CETP from serum (Homo sapiens (Human), UniProt P11597); assay: RTA assay in 95% human serum (CETP-catalyzed CE and TG transfer, endogenous CETP); assay type: biochemical; settings: generally RTA assay in 95% human serum; read-out: IC50
Source text: In Vitro Radioactive Assays of CETP-Catalyzed CE and TG Transfer (RTA Assay)
Reagents and sources are: [3H] cholesteryl oleate (GE #TRK.886), [3H] Triolein (Perkin-Elmer NET-431), Butylated hydroxyl toluene (Aldrich, #D4740-4), DOPC (Sigma, #P6354), Sodium Bromide (Fisher scientific #S255-500), PEG 8000 (Fisher, #BP233-1), and human HDL (Intracel Corp #RP-036).
Both assays measure the transfer of [3H] cholesteryl oleate or [3H] triolein from exogenous LDL to HDL.
Radiolabeled donor particles are generated by first combining 100 μl of 200 μM butylated hydroxyl toluene in CHCl3, 216 μL of 21.57 mM DOPC in EtOH, and either 500 μCi [3H]-triolein (Perkin Elmer #NET-431) or 500 μCi [3H]-cholesteryl oleate (GE #TRK886) in a glass tube. Reagents are mixed, dried under nitrogen, and then resuspended in 2 mL of 50 mM Tris, 27 μM EDTA at pH 7.4. After a brief vortex, the solution is sonicated until clear and mixed with 20 mL of fresh human serum. The mixture is incubated overnight at 37° C. The [3H] labeled LDL substrate is separated at 1.063 g/ml density by sequential ultracentrifugal flotation in NaBr according to the method of Havel, Eder, et al., 1955, and Chapman, Goldstein, et al., 1981. Once isolated the particles are dialyzed 3× in CETP buffer (50 mM Tris, pH 7.4, 100 mM NaCl, 1 mM EDTA). Human HDL is purchased from Intracel and used as the acceptor particles.
Transfer assays are performed in a 96-well v-bottom polypropylene plate. For the RTA using recombinant CETP (2% RTA), an assay cocktail is prepared with the final concentrations 128 μg/mL HDL, 20 nM rCETP, 2% human serum, and 1×CETP buffer. 1 μL of each test compound diluted in DMSO is added to 47 μL of assay cocktail per well and incubated at 37° C. for 1 hour. To initiate the transfer reaction, 2 μL radiolabeled LDL is added. After an additional 60 min of incubation at 37° C., the transfer action is terminated by precipitation of LDL with an equal volume of 20% W/V PEG 8000. The plates are centrifuged at 2000 rpm for 30 minutes at 4° C. A 40 μL aliquot of the HDL-containing supernatant is transferred to a Packard Optiplate™ with 200 μL of MicroScint™ 20. After mixing, plates are counted by liquid scintillation. Counts present in the supernatant for blanks (wells containing only HDL acceptor, CETP buffer and DMSO) are subtracted from those containing test compounds and used to correct for non-specific transfer.
For the transfer assay using endogenous CETP from serum (95% RTA), the same procedure is used except that human serum is added such that a final concentration of serum of 95% of the total assay volume is achieved, yielding a concentration of approximately 15 nM endogenous CETP in the assay. This is then combined with HDL and CETP buffer and the reaction proceeds as above and is terminated as described.
Comparison of the counts of samples with inhibitors to an uninhibited (DMSO only) positive control yield a percent inhibition. A plot of percent inhibition vs. log of inhibitor concentration, fit to a Sigmoidal 4 parameter equation is used to calculate IC50.
Starting materials are commercially available or are made using known procedures or as shown below. The examples may be synthesized according to the general schemes provided below and through the synthetic intermediates that are described. […] When compounds of Formula I or Formula II are mentioned herein, such compounds include compounds defined generically by Formula I or II and also the specific examples disclosed herein.

Chain of CETP (P11597 18-493): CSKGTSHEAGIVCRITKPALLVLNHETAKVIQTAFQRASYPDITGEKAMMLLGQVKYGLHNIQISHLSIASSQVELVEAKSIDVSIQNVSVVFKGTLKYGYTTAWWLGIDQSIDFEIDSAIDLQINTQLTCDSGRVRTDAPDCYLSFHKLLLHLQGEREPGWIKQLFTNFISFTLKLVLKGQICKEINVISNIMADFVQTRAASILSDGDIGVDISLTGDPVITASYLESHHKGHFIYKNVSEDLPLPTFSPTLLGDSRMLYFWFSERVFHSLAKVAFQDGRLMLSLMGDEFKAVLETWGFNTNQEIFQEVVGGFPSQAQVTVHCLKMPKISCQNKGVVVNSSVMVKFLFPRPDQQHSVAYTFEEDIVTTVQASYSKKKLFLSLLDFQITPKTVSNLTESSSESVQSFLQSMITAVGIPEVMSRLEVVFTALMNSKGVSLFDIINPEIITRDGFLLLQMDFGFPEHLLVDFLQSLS
Chain of endogenous CETP from serum (P11597 18-493 limits assumed): as the sequence (P11597 18-493) above

COc1ccc(-c2ccc(C(=O)O)cc2C)cc1-c1cnc(N(C)C)nc1CN1C(=O)O[C@@H](c2cc(C(F)(F)F)cc(C(F)(F)F)c2)C12CC2 [Example 8, 3′-[4-({(7S)-7-[3,5-bis(trifluoromethyl)phenyl]-5-oxo-6-oxa-4-azaspiro[2.4]hept-4-yl}methyl)-2-(dimethylamino)pyrimidin-5-yl]-4′-methoxy-2-methylbiphenyl-4-carboxylic acid]
IC50 (CETP): 6.3 µM

COc1cc(F)c(C(C)C)cc1-c1ccc(C(F)(F)F)cc1CN1C(=O)O[C@H](c2cc(C(F)(F)F)cc(C(F)(F)F)c2)[C@@H]1C [anacetrapib]
decrease of LDL-C [1]: 40%
increase of HDL-C [1]: 138%

COc1ncc(-c2ccc(C(=O)O)cc2C)cc1-c1ccc(C(F)(F)F)nc1CN1C(=O)O[C@H](c2cc(C(F)(F)F)cc(C(F)(F)F)c2)C12CC2 [Example 4, 4-[2′-({(7R)-7-[3,5-bis(trifluoromethyl)phenyl]-5-oxo-6-oxa-4-azaspiro[2.4]hept-4-yl}methyl)-2-methoxy-6′-(trifluoromethyl)-3,3′-bipyridin-5-yl]-3-methylbenzoic acid]
IC50 [2]: 0.173 µM
